Data on two molecules can be found in patent publication US4220714A, “Composition for inhibiting adenylate-kinase and its use” (priority 1977, dated 1980).

The subject of assay [1] is creatine kinase from serum. The assay is described as follows: Creatine kinase (CK) activity from serum, coupled HK/G-6-PD reaction at 340 nm. The format is biochemical, human. The conditions noted are these: FIG. 3. The source says: Each value represent the average of five independent readings.
All the CK activities were corrected by allowing for the AK activity.
The same samples were used both for AMP and the fluoride. The ordinates report the percentage relative to the inhibition of the creatine kinase and the abscissae indicate the concentrations of AMP, or fluoride, in millimols per liter, in FIG. 3.

For another assay, the target named is T1, erythrocyte AK (Homo sapiens, UniProt P00568).
T1 construct: the haemolysate from human erythrocytes; from tissue; host or cells: human erythrocytes (haemolysate)
T1 sequence (P00568 1-194): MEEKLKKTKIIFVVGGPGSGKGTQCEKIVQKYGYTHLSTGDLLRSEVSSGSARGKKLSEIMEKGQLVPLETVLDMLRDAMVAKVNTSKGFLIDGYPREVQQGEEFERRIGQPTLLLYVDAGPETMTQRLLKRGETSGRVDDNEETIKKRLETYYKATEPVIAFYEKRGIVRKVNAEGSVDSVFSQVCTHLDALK
Nature of the assay: CK determination in normal sera without and with added erythrocyte AK. It is filed as biochemical. The conditions noted are these: AMP only at 5 millimols per liter. The source says:
Such samples have been analyzed with the method described herein and with that which uses AMP at 5 millimols per liter.

The next assay deals with adenylate kinase. The settings on record: erythrocyte AK; agent used alone (AMP without fluoride, fluoride without AMP); FIG. 1, 2.
Another assay has as its system CK. The conditions noted are these: AMP at 5 to 10 times the ADP concentration; cited from earlier work.

Protocol for adenylate kinase: Normal and abnormal sera (from myocardial infarct) and the haemolysate from human erythrocytes were used as sources of CK and of AK.
The AK activity was determined according to the method by Szasz et al. (Clin. Chem., 22, 1806, (1976)). […] A spectrophotometer, Beckman-25 with basin-supporting cradle and thermostat, was used. The reaction temperature for determining both AK and CK was 37° C.

Regarding `Nc1ncnc2c1ncn2[C@@H]1O[C@H](COP(=O)(O)O)[C@@H](O)[C@H]1O` [AMP, adenosine-5'-monophosphate], the “inhibition of CK activity” value in assay [1] (AMP at 20 millimols per liter) is recorded as “more than 10%”. The “excess of CK values of samples with erythrocyte AK over normal samples” value on erythrocyte AK is “about 50%”. In addition, the “difference in CK activity between normal samples and samples with added erythrocyte AK” value on erythrocyte AK (P less than 0.01) is on record as “most significant difference”. Further, the “concentration at which 95% of inhibition of AK is attained” value with adenylate kinase was “more than 20 millimols per liter”. Moreover, in the assay on CK, the “inhibition of the activity of the CK” value is “slightly inhibits”.

Regarding `[F-].[K+]` [fluoride, potassium fluoride], the “inhibition of CK activity” value in assay [1] (fluoride at 25 millimols per liter) was not below 4%. In addition, the “concentration at which 95% of inhibition of AK is attained” value with adenylate kinase is recorded as 25 millimols per liter.
